# Experimental data from ChEMBL document CHEMBL6096728, “Simultaneous Induction of Immunogenic Pyroptosis and PD-L1 Downregulation by One Single Photosensitizer for Synergistic Cancer Photoimmunotherapy” (J Med Chem, 2025).
# Calls of active or inactive are those of the source. The calls are words filed in the database; no cut-off is given here.
# Columns and labels:
# [1] = test system: MDA-MB-231; test: Inhibition of STAT3 phosphorylation level in human MDA-MB-231 cells at 0.5 uM incubated for 24 hrs under light irradiation of 20 mW.cm/2 at 400 to 700nm for 10 mins by Western blot analysis; assay type: functional, cell-based
# [2] = test system: MDA-MB-231; test: Photocytotoxicity in human MDA-MB-231 cells assessed as cell viablity incubated for 24 hrs under light irradiation of 50 mW.cm/2 at 400 to 700nm measured after 10 mins in hypoxia condition by CCK-8 method; assay type: functional, cell-based; details: MDA-MB-231, light or radiation study
# [3] = Toxicity in BALB/c mouse assessed as effect on hemoglobin at 25 mg/kg, iv measured after 14 days under light irradiation of 300 mW.cm/2 at 400 to 700nm measured after 5 mins; assay type: organism-based; details: in vivo, 336 h, 0.7 µM, time 14 day
# [4] = test system: 4T1; test: Antitumor immunity against mouse 4T1 cells implanted in BALB/c mouse model assessed as increase of CD8+ T cells in lymph node at 25 mg/kg, iv measured after 14 days under light irradiation of 300 mW.cm/2 at 400 to 700nm measured after 5 mins […]; assay type: functional, organism-based; details: time 14.0 day
# [5] = test system: MDA-MB-231; test: Induction of pyroptosis in human MDA-MB-231 cells assessed as upregulation of GSDME-N expression level at 0.1 to 0.5 uM preincubated with compound for 12 hrs followed by light irradiation of 20 mW.cm/2 at 400 to 700nm for 10 mins by Western blot analysis; assay type: functional, cell-based; details: dose 0.1-0.5 µM
# [6] = test system: 4T1; test: Antitumor immunity against mouse 4T1 cells implanted in BALB/c mouse model assessed as increase in IL1beta secretion in tumors at 25 mg/kg, iv measured after 14 days under light irradiation of 300 mW.cm/2 at 400 to 700nm measured after 5 mins by ELISA method; assay type: functional, organism-based; details: time 14.0 day
# [7] = test system: MDA-MB-231; test: Induction of pyroptosis in human MDA-MB-231 cells assessed as increase in LDH release at 0.1 to 0.5 uM incubated for 12 hrs under light irradiation of 20 mW.cm/2 at 400 to 700nm for 10 mins; assay type: functional, cell-based; details: dose 0.1-0.5 µM
# [8] = test system: 4T1; test: Antitumor immunity against mouse 4T1 cells implanted in BALB/c mouse model assessed as fold increase in CD4+ T cells in spleen at 25 mg/kg, iv measured after 14 days under light irradiation of 300 mW.cm/2 at 400 to 700nm measured after 5 mins […]; assay type: functional; details: time 14 day
# [9] = Induction of singlet oxygen production in acetonitrile solution assessed as decrease in ABDA absorption under LED light irradiation at 20 mW.cm/2 measured upto 30 mins by microplate reader analysis; assay type: functional
# [10] = Drug uptake in mouse 4T1 cells assessed as increase in fluorescence intensity at 2.5 uM measured after 10 mins by flow cytometry analysis; assay type: ADME, cell-based; details: 4t1, 10 min
# [11] = test system: 4T1; test: Induction of cell death in mouse 4T1 cells assessed as increase in red fluorescence at 0.5 uM incubated for 24 hrs followed by light irradiation of 20 mW.cm/2 at 400 to 700nm for 10 mins by Calcein-AM/PI staining based analysis; assay type: functional
# [12] = test system: MDA-MB-231; test: Induction of pyroptosis in human MDA-MB-231 cells assessed as effect on caspase-1 expression level at 0.1 to 0.5 uM preincubated with compound for 12 hrs followed by light irradiation of 20 mW.cm/2 at 400 to 700nm for 10 mins by Western blot analysis; assay type: functional, cell-based; details: dose 0.1-0.5 µM
# [13] = Toxicity in BALB/c mouse assessed as change in body weight at 25 mg/kg, iv measured after 14 days under light irradiation of 300 mW.cm/2 at 400 to 700nm measured after 5 mins; assay type: organism-based; details: in vivo, 336 h, time 14 day
# [14] = test system: 4T1; test: Antitumor activity against mouse 4T1 cells implanted in BALB/c mouse model assessed as reduction in tumor growth at 25 mg/kg, iv measured after 14 days under light irradiation of 300 mW.cm/2 at 400 to 700nm measured after 5 mins; assay type: functional, organism-based; details: time 14.0 day
# [15] = Toxicity in BALB/c mouse assessed as effect on lung at 25 mg/kg, iv measured after 14 days under light irradiation of 300 mW.cm/2 at 400 to 700nm measured after 5 mins; assay type: organism-based; details: in vivo, 336 h, 0.7 µM, time 14 day
# [16] = Phototoxicity against mouse 4T1 cells preincubated for 2 hrs followed by light irradiation of 20 mW.cm/2 at 400 at 700nm for 24 hrs by CCK-8 method; assay type: functional, cell-based; details: 4T1, light or radiation study
# [17] = Toxicity in BALB/c mouse assessed as effect on heart at 25 mg/kg, iv measured after 14 days under light irradiation of 300 mW.cm/2 at 400 to 700nm measured after 5 mins by H and E staining based analysis; assay type: organism-based; details: in vivo, 336 h, 0.7 µM, time 14 day
# [18] = test system: MDA-MB-231; test: Downregulation of PD-L1 expression level in human MDA-MB-231 cells at 0.5 uM preincubated with MG-132 followed by compound addition and measured after 24 hrs under light irradiation of 20 mW.cm/2 at 400 to 700nm for 10 mins by Western blot analysis; assay type: functional, cell-based
# [19] = Toxicity in BALB/c mouse assessed as change in body weight at 25 mg/kg, iv measured after 14 days; assay type: organism-based; details: in vivo, 336 h, time 14 day
# [20] = Toxicity in BALB/c mouse assessed as effect on heart at 25 mg/kg, iv measured after 14 days by H and E staining based analysis; assay type: organism-based; details: in vivo, 336 h, time 14 day
# [21] = Phototoxicity against human MDA-MB-231 cells preincubated for 2 hrs followed by light irradiation of 20 mW.cm/2 at 400 at 700nm for 24 hrs by CCK-8 method; assay type: functional, cell-based; details: MDA-MB-231, light or radiation study
# [22] = test system: 4T1; test: Antitumor immunity against mouse 4T1 cells implanted in BALB/c mouse model assessed as upregulation of proportion of dendritic cells in lymph node at 25 mg/kg, iv measured after 14 days under light irradiation of 300 mW.cm/2 at 400 to 700nm measured after 5 mins by flow cytometry analysis; assay type: functional, organism-based; details: time 14.0 day
# [23] = test system: 4T1; test: Antitumor immunity against mouse 4T1 cells implanted in BALB/c mouse model assessed as fold increase in CD8+ T cells in spleen at 25 mg/kg, iv measured after 14 days under light irradiation of 300 mW.cm/2 at 400 to 700nm measured after 5 mins […]; assay type: functional; details: time 14 day
# [24] = Phototoxicity against human MDA-MB-231 cells preincubated for 24 hrs followed by light irradiation of 20 mW.cm/2 at 400 to 700nm for 10 mins under hypoxia condition by CCK-8 method; assay type: functional, cell-based; details: MDA-MB-231, light or radiation study
# [25] = Drug uptake in mouse 4T1 cells assessed as increase in fluorescence intensity at 2.5 uM measured after 180 mins by flow cytometry analysis; assay type: ADME, cell-based; details: 4t1, 3 h
# [26] = Drug accumulation in BALB/c mouse tumor implanted with mouse 4T1 cells assessed as increase in fluorescence intensity at 25 mg/kg, iv measured after 0 to 3 hrs by imaging based analysis; assay type: ADME, organism-based, Neoplasm; details: in vivo, time 0-3 hrs
# [27] = test system: MDA-MB-231; test: Induction of pyroptosis in human MDA-MB-231 cells assessed as appearance of large bubbles in cell at 0.5 uM preincubated with compound for 4 hrs followed by light irradiation of 20 mW.cm/2 at 400 to 700nm for 10 mins by confocal fluorescence microscopy analysis; assay type: functional, cell-based
smiles,measurement,setting,value
O=c1cc2sc3cc(N4CCNCC4)ccc3nc-2c2ccccc12,inhibition,[1],Active
same,IC50,[2],983 nM
same,Activity,[3],Non-toxic
same,Activity,[4],Active
same,Activity,[5],Active
same,Activity,[6],Active
same,Activity,[7],Active
same,fold change (FC),[8],6.8
same,Activity,[9],Active
same,Drug uptake,[10],Active
same,Activity,[11],Active
same,Activity,[12],inactive
same,Activity,[13],Non-toxic
same,Activity,[14],Active
same,Activity,[15],Non-toxic
same,IC50,[16],403 nM
same,Activity,[17],Non-toxic
same,Activity,[18],inactive
same,Activity,[19],Non-toxic
same,Activity,[20],Non-toxic
same,IC50,[21],164 nM
same,Activity,[22],Active
same,fold change (FC),[23],6.3
same,IC50,[24],303 nM
same,Drug uptake,[25],Active
same,Drug uptake,[26],Active
same,Activity,[27],Active
